The record followed here is patent publication US12448382B2, “Heterocyclic compounds for mediating tyrosine kinase 2 activity” (GUANGZHOU INNOCARE PHARMA TECH CO., LTD., priority 2019, dated 2025).

Assay [1] deals with T1, human recombinant JAK2 protein (Homo sapiens, UniProt O60674).
T1 construct: purchased Carna Biosciences 08-045
The assay is described as follows: JAK2 Inhibition Assay (HTRF kinase assay). Format: biochemical. Conditions: human recombinant JAK2, 2.5 μM ATP substrate solution. Summed up: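 Recombinant human JAK2 was preincubated 15 min at room temperature with compound in buffer containing 5 mM MgCl2, 1 mM DTT and 0.01% Brij35. Substrate solution (2.5 μM ATP, 0.25 μM biotinylated TK substrate) was then added for 30 min. Phosphorylation was detected by HTRF (665/620 nm ratio; no-enzyme = 100% inhibition), and IC50 was fitted from an 8-point, 4-fold series.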

Assay [2] has as its target T2, human recombinant TYK2 protein (Homo sapiens, UniProt P29597).
T2 construct: purchased Carna Biosciences 08-147
T2 sequence (P29597 871-1187 limits assumed): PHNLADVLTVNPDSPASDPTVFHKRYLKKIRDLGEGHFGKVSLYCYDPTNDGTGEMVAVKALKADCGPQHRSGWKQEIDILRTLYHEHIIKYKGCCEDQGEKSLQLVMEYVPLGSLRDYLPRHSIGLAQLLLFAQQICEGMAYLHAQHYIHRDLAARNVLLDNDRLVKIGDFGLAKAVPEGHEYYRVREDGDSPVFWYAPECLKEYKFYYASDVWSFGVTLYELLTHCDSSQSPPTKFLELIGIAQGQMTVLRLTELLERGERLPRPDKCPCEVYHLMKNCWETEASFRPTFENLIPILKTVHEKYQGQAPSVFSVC
The assay is described as follows: TYK2 Inhibition Assay (HTRF kinase assay). It is filed as biochemical. Conditions: human recombinant TYK2, 11.25 μM ATP substrate solution. A digest of the protocol: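 Recombinant human TYK2 was pre-incubated 15 min at room temperature with compound, then reacted for 40 min with biotinylated tyrosine-kinase substrate and ATP (substrate solution 11.25 μM ATP, 0.5 μM substrate; 5 mM MgCl2, 0.01% Brij35). Phosphorylation was read by HTRF 665/620 ratio, normalised to no-enzyme and no-compound controls, and IC50 was fitted from 8 4-fold dilutions.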

Assay [3] deals with IL-12-induced IFN-γ secretion in NK92 cells. The assay is described as follows: Inhibition of IL-12-induced IFN-γ Secretion in NK92 Cells (ELISA). It is filed as cell-based, human. Conditions: 24 hours incubation, 8 concentration points, read-out: IC50 (NK92_IL12/IFNγ). A digest of the protocol:
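NK92 cells (100,000/well, IL-2-free medium) rested overnight, then treated with compound plus IL-12 for 24 h at 37 °C. Secreted IFN-γ measured in supernatant by ELISA. Inhibition normalized to unstimulated and IL-12/0.2% DMSO controls; IC50 fitted from 8 concentrations.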

Where two headings read alike, the source gives them in different places.

T1 sequence (O60674 826-1132 limits assumed): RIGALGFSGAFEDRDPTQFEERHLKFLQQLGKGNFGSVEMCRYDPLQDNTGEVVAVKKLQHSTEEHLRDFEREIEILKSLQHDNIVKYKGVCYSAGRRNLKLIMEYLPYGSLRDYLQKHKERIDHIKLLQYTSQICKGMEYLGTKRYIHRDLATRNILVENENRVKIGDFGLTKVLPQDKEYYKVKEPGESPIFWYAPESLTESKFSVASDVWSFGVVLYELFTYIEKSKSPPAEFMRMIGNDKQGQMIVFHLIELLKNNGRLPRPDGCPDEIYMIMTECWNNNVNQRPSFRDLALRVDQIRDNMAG

Regarding `Cn1cc(Nc2ncc(Cl)c(N3C[C@@]4(C)CN(S(C)(=O)=O)C[C@@]4(C)C3)n2)cn1` [Compound 34, 5-chloro-4-((3aR,6aS)-3a,6a-dimethyl-5-(methylsulfonyl)hexahydropyrrolo[3,4-c]pyrrol-2(1H)-yl)-N-(1-methyl-1H-pyrazol-4-yl)pyrimidin-2-amine], the IC50 in assay [1] came to 1.8 nM; in assay [2], 0.6 nM; in assay [3] (Homo sapiens), 287 nM.

As to “3-((3aR,6aS)-3a,6a-dimethyl-5-5-methyl-2-((1-methyl-1H-pyrazol-4-yl)amino)pyrimidin-4-yl)hexahydropyrrolo[3,4-c]pyrrol-2(1H)-yl)-3-oxopropanenitrile [Compound 57]”, the results for the IC50 in assay [1], in assay [2] and in assay [3] were 3.2 nM, 2.3 nM and 5240 nM, respectively.

`C[C@@]12CN(C(=O)C3CC3)C[C@]1(C)CN(c1nc(Nc3cnn(CC#N)c3)ncc1Cl)C2` [Compound 33, 2-(4-((5-chloro-4-((3aR,6aS)-5-(cyclopropanecarbonyl)-3a,6a-dimethylhexahydropyrrolo[3,4-c]pyrrol-2(1H)-yl)pyrimidin-2-yl)arnino)-1H-pyrazol-1-yl)acetonitrile]: the IC50 in assay [1] amounted to 6.2 nM; in assay [2], 2.9 nM; in assay [3] (Homo sapiens) it was 215 nM.

With `Cn1cc(Nc2ncc(Cl)c(N3C[C@@H]4CN(S(C)(=O)=O)C[C@]4(C)C3)n2)cn1` (racemic) [Compound 61, cis-5-chloro-N-(1-methyl-1H-pyrazol-4-yl)-4-(3a-methyl-5-(methylsulfonyl)hexahydropyrrolo[3,4-c]pyrrol-2(1H)-yl)pyrimidin-2-amine], the values for the IC50 in assay [1], in assay [2] and in assay [3] (Homo sapiens) were 8.9 nM, 1.6 nM and 578 nM, respectively.

Turning to `Cc1cnc(Nc2cnn(C)c2)nc1N1C[C@@H]2CN(C(=O)C3CC3)C[C@]2(C)C1` (racemic) [Compound 70, cis-cyclopropyl(3a-methyl-5-(5-methyl-2-((1-methyl-1H-pyrazol-4-yl)amino)pyrimidin-4-yl)hexahydropyrrolo[3,4-c]pyrrol-2(1H)-yl)methanone], the IC50 in assay [1] is 17 nM; in assay [2] it was 5.3 nM; in assay [3] (Homo sapiens) it was 1200 nM.

As to `Cn1cc(Nc2ncc(Cl)c(N3C[C@@H]4CN(C(=O)C5CC5)C[C@]4(C)C3)n2)cn1` [Compound 86, ((3aS,6aR)-5-(5-chloro-2-((1-methyl-1H-pyrazol-4-yl)amino)pyrimidin-4-yl)-3a-methylhexahydropyrrolo[3,4-c]pyrrol-2(1H)-yl)(cyclopropyl)methanone], the IC50 was found to be 1.7 nM in assay [1], 0.3 nM in assay [2] and 99 nM in assay [3] (Homo sapiens).

For `C[C@@]12CN(C(=O)[C@@H]3CC3(F)F)C[C@]1(C)CN(c1nc(Nc3cn[nH]c3)ncc1Cl)C2` [Compound 29, ((3aR,6aS)-5-(2((1H-pyrazol-4-yl)amino)-5-chloropyrimidin-4-yl)-3a,6a-dimethylhexahydropyrrolo[3,4-c]pyrrol-2(1H)-yl)((S)-2,2-difluorocyclopropyl)methanone], the IC50 came to 0.5 nM in assay [1], 0.4 nM in assay [2] and 380 nM in assay [3] (Homo sapiens).

`Cc1cnc(Nc2cnn(C)c2)nc1N1C[C@]2(C)CN(C(=O)CC(F)(F)F)C[C@]2(C)C1` [Compound 60, 1-((3aR.,6aS)-3a,6a-dimethyl-5-(5-methyl-2-((1-methyl-1H-pyrazol-4-yl)amino)pyrimidin-4-yl)hexahydropyrrolo[3,4-c]pyrrol-2(1H)-yl)-3,3,3-trifluoropropan-1-one]: the IC50 was found to be 5.9 nM in assay [1], 2.2 nM in assay [2] and 1380 nM in assay [3] (Homo sapiens).

As for `C[C@@]12CN(C(=O)C3CC3)C[C@]1(C)CN(c1nc(Nc3cc[nH]n3)ncc1Cl)C2` [Compound 95, ((3aR,6aS)-5-(2-((1H-pyrazol-3-yl)amino)-5-chloropyrimidin-4-yl)-3a,6a-dimethylhexahydropyrrolo-[3,4-c]pyrrol-2(1H)-yl)(cyclopropyl)methanone], the IC50 in assay [1] is 19 nM; in assay [2] it was 42 nM; in assay [3] (Homo sapiens) it was 5850 nM.

On to `Cn1cc(Nc2ncc(Cl)c(N3C[C@]4(C)CN(C(=O)CC(F)(F)F)C[C@]4(C)C3)n2)cn1` [Compound 48, 1-((3aR,6aS)-5-(5-chloro-2-((1-methyl-1H-pyrazol-4-yl)amino)pyrimidin-4-yl)-3a,6a-dimethylhexahydropyrrolo[3,4-c]pyrrol-2(1H)-yl)-3,3,3-trifluoropropan-1-one], for which the IC50 was 2.5 nM in assay [1], 0.7 nM in assay [2] and 709 nM in assay [3] (Homo sapiens).

For the compound `C[C@@]12CN(C(=O)C3CC3)C[C@]1(C)CN(c1nc(Nc3ccc(C(=O)N4CCOCC4)nc3)ncc1Cl)C2` [Compound 53, ((3aR,6aS)-5-(5-chloro-2-((6-(morpholine-4-carbonyl)pyridin-3-yl)amino)pyrimidin-4-yl)-3a,6a-dimethylhexahydropyrrolo[3,4-c]pyrrol-2(1H)-yl)(cyclopropyl)methanone], the IC50 came to 3.8 nM in assay [1], 3.2 nM in assay [2] and 918 nM in assay [3] (Homo sapiens).

As for `Cn1cc(Nc2ncc(Cl)c(N3C[C@]4(C)CN(C(=O)CC#N)C[C@]4(C)C3)n2)cn1` [Compound 20, 3-((3aR,6aS)-5-(5-chloro-2-((1-methyl-1H-pyrazol-4-yl)amino)pyrimidin-4-yl)-3a,6a-dimethylhexahydropyrrolo[3,4-c]pyrrol-2(1H)-yl)-3-oxopropanenittile], the IC50 came to 1.2 nM in assay [1], 0.5 nM in assay [2] and 233 nM in assay [3] (Homo sapiens).

For `Cc1nnc(N2C[C@@]3(C)CN(c4nc(Nc5cnn(C)c5)ncc4Cl)C[C@@]3(C)C2)o1` [Compound 83, 5-chloro-4-((3aR,6aS)-3a,6a-dimethyl-5-(5-methyl-1,3,4-oxadiazol-2-yl)hexahydropyrrolo[3,4-c]pyrrol-2(1H)-yl)-N-(1-methyl-1H-pyrazol-4-yl)pyrimidin-2-amine], the IC50 was 13 nM in assay [1], 7.4 nM in assay [2] and 4550 nM in assay [3] (Homo sapiens).

For `Cn1cc(Nc2ncc(Cl)c(N3C[C@]4(C)CN(C(=O)c5ccccn5)C[C@]4(C)C3)n2)cn1` [Compound 47, ((3aR,6aS)-5-(5-chloro-2-((1-methyl-1H-pyrazol-4-yl)amino)pyrimidin-4-yl)-3a,6a-dimethylhexahydropyrrolo[3,4-c]pyrrol-2(1H)-yl)(pyridin-2-yl)methanone], the IC50 in assay [1] turned out to be 51 nM; in assay [2] it was 13 nM; in assay [3] (Homo sapiens) it was 7920 nM.

Consider `Cn1cc(Nc2ncc(Cl)c(N3C[C@@H]4CN(C(=O)[C@@H]5CC5(F)F)C[C@]4(C)C3)n2)cn1` [Compound 90], for which the IC50 is 0.6 nM in assay [1], 0.1 nM in assay [2] and 96 nM in assay [3] (Homo sapiens).

For `Cn1cc(Nc2ncc(Cl)c(N3C[C@]4(C)CN(C(=O)[C@H]5CC5(F)F)C[C@]4(C)C3)n2)cn1` [Compound 21], the IC50 in assay [1] was found to be 10 nM; in assay [2], 2 nM; in assay [3] (Homo sapiens) it was 490 nM.

In the case of `Cc1cnc(Nc2cnn(C)c2)nc1N1C[C@@H]2CN(C(=O)[C@@H]3CC3(F)F)C[C@]2(C)C1` (racemic) [Compound 72], the IC50 was 4.5 nM in assay [1], 3.4 nM in assay [2] and 824 nM in assay [3] (Homo sapiens).

Regarding `[2H]C([2H])([2H])n1cc(Nc2ncc(Cl)c(N3C[C@@H]4CN(C(=O)CC#N)C[C@]4(C)C3)n2)cn1` [Compound 99, 3-((3aS,6aR)-5-(5-chloro-2-((1-(methyl-d3)-1H-pyrazol-4-yl)amino)pyrimidin-4-yl)-3a-methylhexahydropyrrolo[3,4-c]pyrrol-2(1H)-yl)-3-oxopropanenitrile], the figures for the IC50 in assay [1], in assay [2] and in assay [3] (Homo sapiens) were 0.5 nM, 0.1 nM and 158 nM, respectively.

In the case of `C[C@@]12CN(C(=O)C3CC3)C[C@]1(C)CN(c1nc(Nc3cn[nH]c3)ncc1Cl)C2` [Compound 23, ((3aR,6aS)-5-(2-((1H-pyrazol-4-yl)amino)-5-chloropyrimidin-4-yl)-3a,6a-dimethylhexahydropyrrolo[3,4-c]pyrrol-2(1H)-yl)(cyclopropyl)methanone], the results for the IC50 in assay [1], in assay [2] and in assay [3] (Homo sapiens) were 3 nM, 1 nM and 551 nM, respectively.

Consider `Cn1cc(Nc2ncc(Cl)c(N3C[C@]4(C)CN(C(=O)[C@@H]5CC5(F)F)C[C@]4(C)C3)n2)cn1` [Compound 22, ((3aR,6aS)-5-(5-chloro-2-((1-methyl-1H-pyrazol-4-yl)amino)pyrimidin-4-yl)-3a,6a-dimethylhexahydropyrrolo[3,4-c]pyrrol-2(1H)-yl)((S)-2,2-difluorocyclopropyl)methanone], for which the IC50 in assay [1] stood at 1.4 nM; in assay [2] it was 0.8 nM; in assay [3] (Homo sapiens), 305 nM.
